Data as given in the OPERA property sets (Mansouri et al. 2018).
Converted amounts (≈) assume the structure as drawn.

settings: not given

Row | SMILES | logP | solubility
1 | CCn1c2ccccc2c2ccccc21 | 4.49 | 
2 | NC(=O)CN1CCCC1=O | -1.54 | 
3 | COc1cccc(N=C=S)c1 | 3.68 | 
4 | O=[N+]([O-])c1cc(Cl)c(Cl)c(Cl)c1Cl | 3.93 | 
5 | O=C(CCCN1CCC(O)(c2ccc(Cl)cc2)CC1)c1ccc(F)cc1 | 4.3 | 
6 | N#Cc1cccc(N=C=S)c1 | 3.13 | 
7 | CCNC(=O)CNC(=O)c1ccccc1 | 0.58 | 
8 | S=C=Nc1ccc(I)cc1 | 4.22 | 
9 | Nc1nc(NC(=O)C(F)(F)C(F)(F)C(F)(F)F)n[nH]1 | 1.54 | 
10 | CCOP(=O)(OCC)SCc1ccccc1 | 3.21 | 3.84 mM (≈ 1 mg/mL)
11 | c1ccc(Cn2cncn2)cc1 | 0.92 | 
12 | CC(C)(O)C(=O)Nc1ccc(Cl)cc1 | 2 | 
13 | Cc1ncc([N+](=O)[O-])n1C | 0.31 | 
14 | Clc1cc(Cl)c2cc(Cl)cc(Cl)c2c1 | 6.19 | 
15 | CCCCCCCOC(=O)c1ccc(N)cc1 | 4.5 | 
16 | ClC1=CC2(Cl)C3CC(Cl)C(Cl)C3C1(Cl)C2(Cl)Cl (stereo unspecified) | 5.56 | 
17 | NC(=O)CCCN=C(c1ccc(Cl)cc1)c1cc(F)ccc1O | 3.06 | 
18 | COC(=O)C1=C(C)NC(C)=C(C(=O)OCC(C)C)C1c1ccccc1[N+](=O)[O-] (stereo unspecified) | 3.26 | 
19 | [O-][n+]1ccc(Cl)c2ccc(Cl)cc21 | 1.85 | 
20 | Fc1ccc(Cn2cncn2)cc1 | 1.1 | 
21 | CCCN(CCC)C1COc2ccc(O)cc2C1 (stereo unspecified) | 3.19 | 
22 | O=C(O)c1cccnc1Nc1cccc(C(F)(F)F)c1 | 4.43 | 

Row | SMILES | logP | solubility
23 | CC(NC(CCc1ccccc1)C(=O)O)C(=O)N1C(C(=O)O)CC2CCCC21 (stereo unspecified) | 0.22 | 
24 | N[C@@H](Cc1ccc(O)c(O)c1)C(=O)OCCOc1ccccc1 | 1.51 | 
25 | CC(C)c1cccc(OP(=O)(Oc2ccccc2)Oc2ccccc2)c1 | 5.31 | 
26 | COc1ccc2oc(N(N)CCC#N)nc2c1 | 0.98 | 
27 | NS(=O)(=O)c1cc2cc(CNCCF)sc2o1 | 0.34 | 
28 | CCN(CC)C(=O)CCC(=O)OCn1ncc2c(O)ncnc21 | -0.22 | 
29 | COc1ccccc1C=O | 1.72 | 
30 | CCCCN(CCOC(C)=O)c1ccc(N=Nc2c(C#N)cc([N+](=O)[O-])cc2C#N)c(C)c1 | 5.5 | 1.32e-06 mM (≈ 5.9e-07 mg/mL)
31 | C=CC(=O)NCCCN(CCO)CCO | -0.6 | 
32 | CC1CCc2cc(F)cc3c(=O)c(C(=O)O)cn1c23 (stereo unspecified) | 1.6 | 
33 | NC(=O)c1ccc(N)nc1 | 0.7 | 
34 | CCCC[N+](C)(CCCC)CCCC.[I-] | 0.26 | 
35 | CCOC(=O)[C@@H](N)Cc1ccc(O)cc1 | 0.72 | 
36 | Clc1cccc(-c2c(Cl)ccc(Cl)c2Cl)c1Cl | 6.04 | 
37 | O=c1[nH]cnc2c1ncn2C1CC(O)C(CO)O1 (stereo unspecified) | -1.71 | 
38 | CC(C)(C)[N+]([O-])=Cc1ccc(F)cc1 | 1.42 | 
39 | Cc1ccc(C(=O)CS(=O)(=O)c2ccc(C)cc2)cc1 | 3.3 | 
40 | COC(=O)C1CC(=O)N(C)C1 (stereo unspecified) | -0.74 | 
41 | Cc1cccc(NC(=O)c2ccccc2C(=O)O)c1 |  | 3.92 mM (≈ 1 mg/mL)
42 | CN(C)c1ccc(C=NNC(=N)N)cc1 | 0.28 | 
43 | Clc1ccc(Nc2cc3nc4ccccc4n(-c4ccc(Cl)cc4)c-3cc2=NCC2CCNCC2)cc1 | 6.44 | 

same assay, conditions: 22.0 °C

Row | SMILES | log10 OH rate constant (cm³/molecule/s)
44 | CCCCCCl | -11.5

same assay, conditions: 23.0 °C

Row | SMILES | log10 OH rate constant (cm³/molecule/s)
45 | COC(OC)OC | -11.2
46 | CC(=O)C(C)CO (stereo unspecified) | -10.8

same assay, conditions: 25 °C

Row | SMILES | solubility
47 | COc1cc(Cl)ccc1O | 31.5 mM (≈ 5 mg/mL)
48 | C[C@]12C[C@H](O)[C@H]3[C@@H](CCC4=CC(=O)CC[C@@]43C)[C@@H]1CC[C@@H]2C(=O)CO | 0.574 mM (≈ 0.199 mg/mL)
49 | O=C(O)C(Br)Br | 9690 mM (≈ 2110 mg/mL)
50 | CC(F)(F)Cl | 13.9 mM (≈ 1.4 mg/mL)
51 | O=C1c2ccccc2C(=O)c2c(O)c(O)cc(O)c21 | 0.025 mM (≈ 0.0064 mg/mL)
52 | Cc1ccc(C)cc1 | 1.53 mM (≈ 0.162 mg/mL)
53 | C[Se]C | 224 mM (≈ 24.4 mg/mL)
54 | CC=CC#N | 373 mM (≈ 25 mg/mL)
55 | CC(=O)OCC(=O)[C@H]1CC[C@H]2[C@@H]3CCC4=CC(=O)CC[C@]4(C)[C@H]3CC[C@]12C | 0.0234 mM (≈ 0.00873 mg/mL)

same assay, conditions: 25.0 °C

Row | SMILES | log10 OH rate constant (cm³/molecule/s)
56 | CCCCCC(C)=O | -10.9
57 | C[Se]C | -10.2

same assay, conditions: 27.0 °C

Row | SMILES | log10 OH rate constant (cm³/molecule/s)
58 | Oc1ccccc1O | -9.98
59 | CC1=CC(=O)C=CC1=O | -10.6
